Where a name gives a salt, the structure may show the parent alone.
Tests used:
[1] = tested on: esterase enzyme in the skin; test: Hydrolysis of penetrated prodrug in the skin after permeation; type: in vitro ADME, Human
Protocol: (§1) Human cadaver skin permeation studies were performed to quantitatively determine the effective permeation of enalapril ethyl ester through the stratum corneum. The stratum corneum was obtained from split thickness, cryo-preserved cadaver skin by the heat separation technique (˜55°). Samples of 5/16″ diameter were cut from the laminate, in triplicate, and mounted onto ½″ cut pieces of the stratum corneum. These samples were then placed on modified Franz diffusion cells. The receptor was filled with 7.5 mL of 0.9% NaCl and 0.01% NaN3 in deionized water. The cells were maintained at a constant 32° C. and were magnetically stirred at approximately 300 rpm. At specified time points, samples of the receptor phase were taken with complete replacement of the receptor phase. These samples were quantified by high-performance liquid chromatography (HPLC) utilizing Waters HPLC instrumentation. C-8(15 cm×4.6 mm) 5 μm particle size columns ([…] made by MetaChem Technologies, Inc.; Torrance, Calif.) were used at 50° C. (column temperature). The mobile phase contained 50% acetonitrile: 50% buffer (10 mM KH2PO4, pH=2.7). The detection wavelength was 214 nm. HPLC flow rate is 1.5 mL/min.
More than 50% of the penetrated enalapril ethyl ester was hydrolyzed into enalaprilat after permeation through the skin.

[2] = Human cadaver skin permeation (flux) study, modified Franz diffusion cells; type: in vitro ADME; conditions: for flux of a dermal composition: carrier composition of Example 2, different cadaver skin, FIG. 1; for flux through skin (in words): enalapril ethyl ester prodrug compared with enalapril maleate form
Protocol: as §1

| penetrated enalapril ethyl ester hydrolyzed into enalaprilat ([1]; after permeation through the skin) | hydrolysis of the ethyl ester group on the proline moiety ([1]; by an esterase enzyme in the skin) | flux of a dermal composition [2] | flux through skin (in words) [2] | SMILES |
| --- | --- | --- | --- | --- |
| More than 50% | selectively hydrolyzed | 4.8 µg/cm²/h | significantly greater | CCOC(=O)[C@H](CCc1ccccc1)N[C@@H](C)C(=O)N1CCC[C@H]1C(=O)OCC [enalapril ethyl ester] |
|  |  | 0.2 μg/cm^2/sec | negligible | CCOC(=O)[C@H](CCc1ccccc1)N[C@@H](C)C(=O)N1CCC[C@H]1C(=O)O [enalapril maleate, reference compound] |
